Measurements from patent US7074811B2 (SmithKline Beecham p.l.c., priority 2000, dated 2006).

Test: Hygroscopicity of the Hydrochloride (weight gain at 75% relative humidity)
Format: physicochemical
Settings: 43 days

hygroscopicity classification (75% relative humidity at 21° C.): non-hygroscopic (<2%) | percentage weight gain (75% relative humidity atmosphere at 21° C., constant weight attained, sample of Example 1): 0.4%
SMILES: CN(CCOc1ccc(CC2SC(=O)NC2=O)cc1)c1ccccn1.Cl (centres unmarked) [Hydrochloride, 5-[4-[2-(N-methyl-N-(2-pyridyl)amino)ethoxy]benzyl]thiazolidine-2,4-dione hydrochloride]
